The subject of the test is SARS coronavirus 3C-like protease (3CLpro, nsp5). Put plainly: blockers of SARS 3CLpro activity – biochemical, fluorescence, assay provider results, late-stage follow-up (AID 488967). The following applies: recombinant 3CLpro, fluorogenic peptide cleavage; at 100 µM; stronger effect = higher value.

Active and inactive are the calls of the source. How the calls were made is not given here.

`O=C(NCc1ccccc1)C(c1cccc(F)c1)N(C(=O)Cn1nnc2ccccc21)C12CC3CC(CC(C3)C1)C2` (configuration not stated): the inhibition was 11.1% (inactive). Next, `CC(C)(C)NC(=O)C(c1cncnc1)N(C(=O)c1cnco1)c1ccc(C(C)(C)C)cc1` (configuration not stated): 36.2% (inactive). Next, `CC(C)(C)NC(=O)C(c1ccsc1)N(C(=O)Cn1nnc2ccccc21)c1ccc(NC(=O)C(C)(C)C)cc1` (configuration not stated): 77.4%; `CCC(C)c1ccc(N(C(=O)c2ccco2)[C@H](C(=O)NC(C)(C)C)c2cccnc2)cc1` (some centres not stated): 93.1%; `CC(=O)Nc1ccc(N(C(=O)Cn2nnc3ccccc32)C(C(=O)NC(C)(C)C)c2cccc(F)c2)cc1` (configuration not stated): 90.2%. Take `CC(C)(C)NC(=O)C(c1cncnc1)N(C(=O)c1cnc[nH]1)c1ccc(C(C)(C)C)cc1` (configuration not stated): the inhibition is 66.8%.

For the compound `CC(C)COC(=O)Nc1ccc(N(C(=O)Cn2nnc3ccccc32)C(C(=O)NC(C)(C)C)c2ccsc2)cc1` (configuration not stated), the inhibition was 0.9% (inactive). For the compound `CC(C)(C)NC(=O)C(c1ccsc1)N(C(=O)Cn1nnc2ccccc21)c1ccc(NC(=O)c2ccno2)cc1` (configuration not stated), the inhibition is 59.4%.

Regarding `O=C(Nc1ccc(N(Cc2ccsc2)C(=O)Cn2nnc3ccccc32)cc1)C1CCCCC1`, the inhibition was 22.1% (inactive).

With `CC(C)(C)NC(=O)C(c1cccnc1)N(C(=O)c1ncco1)c1ccc(C(C)(C)C)cc1` (configuration not stated), the inhibition is 51.6%.

Turning to `O=C(NCc1ccccc1)C(c1cccc(F)c1)N(C(=O)Cn1nnc2ccccc21)C1CC2CCC1C2` (configuration not stated), the inhibition is 42.5% (inactive).

Take `CC(C)(C)NC(=O)C(c1cccc(F)c1)N(C(=O)Cn1nnc2ccccc21)C12CC3CC(CC(C3)C1)C2` (configuration not stated): the inhibition is 10.6% (inactive).

As for `CC(C)(C)NC(=O)[C@H](c1cccnc1)N(C(=O)c1ccco1)c1ccc(C(C)(C)C)cc1`, the inhibition was 25% (inactive).

Take `O=C(Nc1ccc(N(Cc2ccsc2)C(=O)Cn2nnc3ccccc32)cc1)c1ccccc1`: the inhibition was 18.2% (inactive). For `CC(C)(C)NC(=O)C(c1ccsc1)N(C(=O)Cn1nnc2ccccc21)c1ccc(NC(=O)C2CCCCC2)cc1` (configuration not stated), the inhibition is 84.9%. Next, `CC(C)C(=O)Nc1ccc(N(Cc2ccsc2)C(=O)Cn2nnc3ccccc32)cc1`: 83.6%; `CC(C)(C)NC(=O)[C@@H](c1cccnc1)N(C(=O)c1ccco1)c1ccc(C(C)(C)C)cc1`: 98.8%. As to `CC(C)(C)NC(=O)C(c1cccnc1)N(C(=O)c1ccc(Cl)o1)c1ccc(C(C)(C)C)cc1` (configuration not stated), the inhibition was 89.6%. The figure for `CC(C)(C)NC(=O)C(c1cccc(F)c1)N(C(=O)Cn1nnc2ccccc21)C1CC2CCC1C2` (configuration not stated) is 32.7% (inactive); for `CC(C)(C)NC(=O)C(c1ccsc1)N(C(=O)Cn1nnc2ccccc21)c1ccc(NC(=O)C2CCC2)cc1` (configuration not stated) it is 22.7% (inactive). The figure for `CC(C)(C)NC(=O)C(c1ccsc1)N(C(=O)Cn1nnc2ccccc21)c1ccc(NC(=O)c2ccccc2)cc1` (configuration not stated) is -7% (inactive). Regarding `CC(C)(C)NC(=O)C(c1cccnc1)N(C(=O)c1ccc[nH]1)c1ccc(C(C)(C)C)cc1` (configuration not stated), the inhibition was 18.6% (inactive). The figure for `O=C(Nc1ccc(N(Cc2ccsc2)C(=O)Cn2nnc3ccccc32)cc1)C1CC1` is 82.8%; for `CC(=O)Nc1ccc(N(C(=O)Cn2nnc3ccccc32)C(C(=O)NCc2ccccc2)c2cccc(F)c2)cc1` (configuration not stated) it is 84.7%. The figure for `O=C(Nc1ccc(N(Cc2ccsc2)C(=O)Cn2nnc3ccccc32)cc1)C1CCC1` is 85.7%. In the case of `CC(C)(C)NC(=O)C(c1ccsc1)N(C(=O)Cn1nnc2ccccc21)c1ccc(NC(=O)c2cccs2)cc1` (configuration not stated), the inhibition is 14.6% (inactive). For `CC(C)(C)C(=O)Nc1ccc(N(Cc2ccsc2)C(=O)Cn2nnc3ccccc32)cc1`, the inhibition was 86.3%. Turning to `O=C(Nc1ccc(N(Cc2ccsc2)C(=O)Cn2nnc3ccccc32)cc1)c1cccs1`, the inhibition was 32.9% (inactive).

Turning to `CC(C)COC(=O)Nc1ccc(N(Cc2ccsc2)C(=O)Cn2nnc3ccccc32)cc1`, the inhibition was 10.3% (inactive). As to `CCC(C)c1ccc(N(C(=O)c2ccco2)[C@@H](C(=O)NC(C)(C)C)c2cccnc2)cc1` (some centres not stated), the inhibition was -3.8% (inactive). `CC(C)(C)NC(=O)C(c1cccnc1)N(C(=O)Cc1cnc[nH]1)c1ccc(C(C)(C)C)cc1` (configuration not stated): the inhibition is 15.7% (inactive).

`CC(C)(C)NC(=O)C(c1ccsc1)N(C(=O)Cn1nnc2ccccc21)c1ccc(NC(=O)C2CC2)cc1` (configuration not stated): the inhibition is 85.7%.

A word on the inhibition: it is the drop in the measured response relative to a control, in per cent.

These data come from PubChem BioAssay AID488967 (The Scripps Research Institute Molecular Screening Center, 2010).
